# Measured values: US8097422B2, “Kir channel modulators” (Salk Institute for Biological Studies, priority 2007, dated 2012)
# Substitutions are numbered along the chain they refer to.
# How the values were obtained:
# Format in all cases: cell-based
# [1] = target: T1, IRK1 channel (Mus musculus, UniProt P35561); assay: whole-cell patch clamp, HEK293T cells transfected with IRK1; conditions: n=5; for inhibition of IRK1 channel, percentage inhibition: equimolar 50 mM alcohol series
# T1 construct: expressed in transfected cells; host or cells: HEK293T
# T1 sequence (P35561 1-428): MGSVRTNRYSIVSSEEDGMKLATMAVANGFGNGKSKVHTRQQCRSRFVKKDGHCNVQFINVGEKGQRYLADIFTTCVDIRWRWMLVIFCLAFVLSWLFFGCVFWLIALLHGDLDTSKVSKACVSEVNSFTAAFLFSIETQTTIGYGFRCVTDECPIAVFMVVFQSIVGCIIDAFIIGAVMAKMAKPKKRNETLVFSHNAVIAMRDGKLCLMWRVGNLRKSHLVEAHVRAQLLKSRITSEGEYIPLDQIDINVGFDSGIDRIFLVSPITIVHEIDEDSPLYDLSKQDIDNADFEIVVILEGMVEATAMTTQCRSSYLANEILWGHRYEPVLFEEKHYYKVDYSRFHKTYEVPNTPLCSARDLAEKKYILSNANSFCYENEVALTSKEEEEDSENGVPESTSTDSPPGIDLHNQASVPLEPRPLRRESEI
# Protocol: Using whole-cell patch clamp, technique in HEK293T cells transfected with IRK1 or GIRK2 channels, it was determined that MPD does in fact modulate these channels. Addition of 100 mM MPD inhibits the inward currents of the IRK1 channel, without changing the reversal potential or altering inward rectification (FIG. 1e).
# (§1) GIRK2c, GIRK4, IRK1, M2R and m-Phosducin were subcloned into PCDNA3.1 vector (Invitrogen). Point mutations were introduced by Quickchange site directed mutagenesis kit (Stratagene). The GIRK2 PIP mutant was generated by overlap-PCR method. Briefly, amino acid 216-NLRKSHL-222 (SEQ ID NO: 25) of IRK1 was swapped into 228-DLRNSHL-234 (SEQ ID NO: 26) of GIRK2, in the region designated βC-βD loop in the crystal structure. Mutations were confirmed by automated DNA sequencing methods.
# (§2) HEK 293T cells were cultured in DMEM supplemented with 10% FBS, and 1× Glutamax (Invitrogen) in a humidified 37° incubator with 5% CO2. Cells were plated in a 12 well dish, and were transiently transfected using Lipofectamine 2000 (Invitrogen). After 12-24 hrs, cells were re-plated to 12-mm glass coverslips coated with poly-D-Lysine (20 microgram/ml).
# (§3) HEK293 cells were transfected with 0.2 micrograms of channel cDNA. The cells were co-transfected with 0.04 micrograms of eYFP cDNA to identify transfected cells. 0.8 micrograms of Muscarinic Receptor 2 (M2R) was also co-transfected for experiments with Carbachol. For experiments with and without m-phosducin, 0.8 ug of m-phosducin cDNA was used versus a PCDNA3.1 vector control.
# (§4) Whole-cell patch clamp recordings were performed 24-72 hrs after transfection. Borosilicate glass electrodes (Warner Instruments) of […] filled with intracellular solution (130 mM KCl, 20 mM NaCl, 5 mM EGTA, 2.56 mM K2ATP, 5.46 mM MgCl2, 0.30 mM Li2GTP, and 10 mM HEPES (pH 7.4)) was used. Membrane currents were recorded using Axopatch 200B (Axon Instruments) amplifier, adjusted electronically for cell capacitance and series resistance (80-100%), filtered at 1 kHz with an 8-pole Bessel filter and digitized at 5 kHz with a Digidata 1200 interface (Axon Instruments). The cells rapidly perfused with a 20 mM K^+ (20K) solution (20 mM KCl, 140 mM NaCl, 0.5 mM CaCl2, 2 mM MgCl2 and 10 mM HEPES (pH7.4)). Alcohols, 5 μM Carbachol, and 1 mM BaCl2 (diluted in 20K solution) were applied from outside the cell with the rapid perfusion system (Warner Instruments). Whole-cell currents were measured using a ramp protocol that holds at −40 mV, steps to −100 mV then ramps to +50 mV and repeats every 2 seconds. Current-voltage relationships also were obtained from the ramp protocol. This protocol was used to measure the inwardly rectifying currents at −100 mV and to ensure stability of recording by monitoring a reversal potential and inward rectification. Current density was measured by dividing inward current at −100 mV by membrane capacitance that was compensated during the recording. Basal currents were measured as the Ba^++ blocked inward currents at −100 mV. Alcohol and Carbachol modulated currents were measured by averaging two consecutive current readings upon reaching steady state, and subtracting the averaged basal current before and after the application of modulator. Pooled data are presented as Mean±SEM and evaluated for statistical significance by a 1-way ANOVA, followed by Bonferroni's multiple comparison post-hoc test.
# [2] = target: T2, GIRK2 PIP channel (Mus musculus, UniProt P48542, D228N/I234L/N231K); assay: whole-cell patch clamp, GIRK2 PIP chimeric channel; conditions: equimolar alcohol series (50 mM)
# T2 construct: expressed in transfected cells; host or cells: HEK293 / HEK293T
# T2 sequence (P48542 1-425 D228N/N231K/I234L): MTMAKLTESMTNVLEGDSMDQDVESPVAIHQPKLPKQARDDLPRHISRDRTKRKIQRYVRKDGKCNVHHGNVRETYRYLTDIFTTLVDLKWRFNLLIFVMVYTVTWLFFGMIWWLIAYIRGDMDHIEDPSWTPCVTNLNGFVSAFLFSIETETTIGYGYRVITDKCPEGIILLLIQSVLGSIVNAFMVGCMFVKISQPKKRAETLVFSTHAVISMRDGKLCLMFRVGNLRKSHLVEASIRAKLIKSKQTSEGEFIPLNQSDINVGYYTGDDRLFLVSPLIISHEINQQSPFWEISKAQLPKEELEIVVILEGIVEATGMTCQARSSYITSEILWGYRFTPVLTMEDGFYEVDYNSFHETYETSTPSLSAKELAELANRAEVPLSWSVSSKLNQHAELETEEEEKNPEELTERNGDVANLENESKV
# Protocol: To test whether this sensitivity to inhibition would be altered by mutation at the MPD-bound hydrophobic pocket, Leu257 was mutated to Trp for this channel.
# Whole-cell patch clamp recordings were performed 24-72 hrs after transfection. Borosilicate glass electrodes (Warner Instruments) of 5-7 milliohms filled with intracellular solution (130 mM KCl, 20 mM NaCl, 5 mM EGTA, 2.56 mM K2ATP, 5.46 mM MgCl2, 0.30 mM Li2GTP, and 10 mM HEPES (pH 7.4)) was used. Membrane currents were recorded using Axopatch 200B (Axon Instruments) amplifier, adjusted electronically for cell capacitance and series resistance (80-100%), filtered at 1 kHz with an 8-pole Bessel filter and digitized at 5 kHz with a Digidata 1200 interface (Axon Instruments). The cells rapidly perfused with a 20 mM K^+ (20K) solution (20 mM KCl, 140 mM NaCl, 0.5 mM CaCl2, 2 mM MgCl2 and 10 mM HEPES (pH7.4)). Alcohols, 5 μM Carbachol, and 1 mM BaCl2 (diluted in 20K solution) were applied from outside the cell with the rapid perfusion system (Warner Instruments). Whole-cell currents were measured using a ramp protocol that holds at −40 mV, steps to −100 mV then ramps to +50 mV and repeats every 2 seconds. Current-voltage relationships also were obtained from the ramp protocol. This protocol was used to measure the inwardly rectifying currents at −100 mV and to ensure stability of recording by monitoring a reversal potential and inward rectification. Current density was measured by dividing inward current at −100 mV by membrane capacitance that was compensated during the recording. Basal currents were measured as the Ba^++ blocked inward currents at −100 mV. Alcohol and Carbachol modulated currents were measured by averaging two consecutive current readings upon reaching steady state, and subtracting the averaged basal current before and after the application of modulator. Pooled data are presented as Mean±SEM and evaluated for statistical significance by a 1-way ANOVA, followed by Bonferroni's multiple comparison post-hoc test.
# [3] = target: T3, GIRK2 channel (wild type) (Mus musculus, UniProt P48542); assay: whole-cell patch clamp, HEK293T cells transfected with GIRK2; conditions: for desensitization of induced GIRK2 current in cells co-transfected with M2R and myristylated-phosducin / activation of wildtype GIRK2, percentage change from Ba++ sensitive basal current: 100 mM alcohols; for desensitization of induced GIRK2 current in cells co-transfected with M2R and myristylated-phosducin: 5 uM Carbachol
# T3 construct: expressed in transfected cells; host or cells: HEK293T
# T3 sequence (P48542 1-425): T2 sequence (P48542 1-425 D228N/N231K/I234L) with N228D, K231N, L234I
# Description: as §1, §2, §3, §4
"inhibition of IRK1 channel, percentage inhibition [1]","inhibition of GIRK2 PIP channel, percentage inhibition [2]","activation of wildtype GIRK2, percentage change from Ba++ sensitive basal current ([3]; n=32)","inhibition at 100000 µM ([1]; HEK-293T, 100 mM MPD, -100 mV, read-out: percent change of basal current, IRK)","percent change of basal current, GIRK2 (positive = activation) ([3]; 100 mM MPD, -100 mV, n=5)","concentration inducing a noticeable activation of GIRK currents ([3]; dose response, GIRK2)","G-protein activation of wildtype GIRK2 by Carbachol, percentage change from basal current ([3]; 5 μM Carbachol, M2R co-transfected, n=32)",Compound,desensitization of induced GIRK2 current in cells co-transfected with M2R and myristylated-phosducin [3]
−20±3%,−97±1%,–,–,–,–,–,1-butanol [1-BuOH],–
−12±2%,−87±2%,486±34%,–,–,–,–,1-propanol [1-PrOH],no desensitization
−25±3%,−80±2%,305±19%,32.5 ± 3.9%,246±26.7%,10 mM,–,"CC(O)CC(C)(C)O (racemic) [MPD, 2-methyl-2,4-pentanediol]",no desensitization
–,–,–,–,–,–,928±141%,C[N+](C)(C)CCOC(N)=O [Carbachol],rapid activation and desensitization
−5±1%,−18±2%,119±5%,–,–,–,–,"CCO [EtOH, ethanol]",no desensitization
